Experimental data as given in publication PMC4059246 (Journal of Medicinal Chemistry, 2014).
Read-outs that look alike come from different tables or passages of the source.

What was measured:
[1] = tested on: RPA194; assay: Western blotting for RPA194 in U2OS cell lysates; format: cell-based
[2] = after 25 mg/kg ip dose; cited from earlier work
[3] = tested on: NCI60 cancer cell lines; conditions: cited from earlier work
[4] = tested on: tumor burden; conditions: mouse xenograft assays; cited from earlier work
[5] = tested on: U2OS cells; assay: Cell viability, WST-1 assay; conditions: U2OS cells, 0, 0.5, 5 μM, 48 h, WST-1 (Figure 5)
[6] = Human liver microsomal stability assay; conditions: for In vitro stability compared with compound 2: human liver microsomes
[7] = tested on: NCL; assay: Western blotting for NCL in U2OS cell lysates; conditions: U2OS cells, 0, 0.1, 1, 10 μM, 3 h (Figure 4)
[8] = tested on: NCL; conditions: U2OS cells, 0.5 μM, 3 h (Figure 2B)
[9] = tested on: RPA194; conditions: for Effect on expression of RPA194: U2OS cells, 0.5 μM, 3 h, representative images (Figure 2A)
[10] = U2OS cells, 0, 0.1, 1, 10 μM, 3 h (Figure 4)
[11] = RPA194 and NCL assays in U2OS cells

CN(C)CCNC(=O)c1cccn2c(=O)c3cc4ccccc4cc3nc12 [Compound 2, N-[2-(Dimethylamino)ethyl]-12-oxo-12H-benzo[g]pyrido[2,1-b]quinazoline-4-carboxamide]
Degradation of RPA194 by Western blotting [1, 10]: caused degradation of RPA194
half-life [2]: 2.5 h
Anticancer activity [3]: broad and potent anticancer activity
Tumor burden [4]: reduced tumor burden
Effect on cell viability [5]: profound loss of cell viability
Major metabolites ([6]; identification of the major metabolites, method not described): N-dealkylation as one of several major metabolites
Expression of NCL by Western blotting [7]: largely unaffected except at very high (10 μM) concentrations

O=C(NCCN1CCCCC1)c1cccn2c(=O)c3cc4ccccc4cc3nc12 [Compound 8, 12-Oxo-N-[2-(1-piperidyl)ethyl]-12H-benzo[g]pyrido[2,1-b]quinazoline-4-carboxamide]
Degradation of RPA194 by Western blotting [1, 10]: caused degradation of RPA194
Effect on nucleolar localization of NCL [8]: decreased the nucleolar localization of NCL
Effect on cell viability [5]: profound loss of cell viability
In vitro stability compared with compound 2 [6]: did not improve stability

O=C(NCCN1CCCC1)c1cccn2c(=O)c3cc4ccccc4cc3nc12 [Compound 9, 12-Oxo-N-(2-pyrrolidin-1-ylethyl)-12H-benzo[g]pyrido[2,1-b]quinazoline-4-carboxamide]
Effect on expression of RPA194 [9]: almost complete loss of expression of RPA194
Effect on nucleolar localization of NCL [8]: decreased the nucleolar localization of NCL
Effect on cell viability [5]: profound loss of cell viability
In vitro stability compared with compound 2 [6]: did not improve stability

CCN(CC)CCNC(=O)c1cccn2c(=O)c3cc4ccccc4cc3nc12 [Compound 10, N-[2-(Diethylamino)ethyl]-12-oxo-12H-benzo[g]pyrido[2,1-b]quinazoline-4-carboxamide]
Effect on nucleolar localization of NCL [8]: decreased the nucleolar localization of NCL
In vitro stability compared with compound 2 [6]: did not improve stability

CC(CN(C)C)NC(=O)c1cccn2c(=O)c3cc4ccccc4cc3nc12 (centres unmarked) [Compound 11, N-[2-(Dimethylamino)-1-methylethyl]-12-oxo-12H-benzo[g]pyrido[2,1-b]quinazoline-4-carboxamide]
Degradation of RPA194 by Western blotting [1, 10]: caused degradation of RPA194
Effect on nucleolar localization of NCL [8]: decreased the nucleolar localization of NCL

O=C(NC1CNC1)c1cccn2c(=O)c3cc4ccccc4cc3nc12 [Compound 12, N-(Azetidin-3-yl)-12-oxo-12H-benzo[g]pyrido[2,1-b]quinazoline-4-carboxamide]
Effect on nucleolar localization of NCL [8]: decreased the nucleolar localization of NCL

CC(CNC(=O)c1cccn2c(=O)c3cc4ccccc4cc3nc12)N(C)C (centres unmarked) [Compound 13, N-[2-(Dimethylamino)propyl]-12-oxo-12H-benzo[g]pyrido[2,1-b]quinazoline-4-carboxamide]
Effect on expression of RPA194 [9]: almost complete loss of expression of RPA194
Effect on nucleolar localization of NCL [8]: decreased the nucleolar localization of NCL
Effect on cell viability [5]: profound loss of cell viability

CN(C)CCCCNC(=O)c1cccn2c(=O)c3cc4ccccc4cc3nc12 [Compound 14, N-[4-(Dimethylamino)butyl]-12-oxo-12H-benzo[g]pyrido[2,1-b]quinazoline-4-carboxamide]
Degradation of RPA194 by Western blotting [1, 10]: less potent
Effect on cell viability [5]: little or no activity

CN(C)CCNC(=O)c1cccn2c(=O)c3ccccc3nc12 [Compound 15, N-[2-(Dimethylamino)ethyl]-11-oxopyrido[2,1-b]quinazoline-6-carboxamide]
Degradation of RPA194 by Western blotting [1, 10]: less potent
Decrease in potency relative to compound 2 [9]: over 40 fold
Effect on expression of RPA194 [9]: no effect
Effect on cell viability [5]: little or no activity

CCN(CC)CCNC(=O)c1cccn2c(=O)c3ccccc3nc12 [Compound 16, N-[2-(Diethylamino)ethyl]-11-oxopyrido[2,1-b]quinazoline-6-carboxamide]
Decrease in potency relative to compound 2 ([9]; RPA194/NCL assays in U2OS cells, versus compound 2): over 40 fold

CN(C)CCOC(=O)c1cccn2c(=O)c3cc4ccccc4cc3nc12 [Compound 17, 2-(Dimethylamino)ethyl 12-Oxo-12H-benzo[g]pyrido[2,1-b]quinazoline-4-carboxylate]
Biological activity (in words) [9, 11]: significant loss in potency

CN(C)CCN(C)C(=O)c1cccn2c(=O)c3cc4ccccc4cc3nc12 [Compound 18, N-[2-(Dimethylamino)ethyl]-N-methyl-12-oxo-12H-benzo[g]pyrido[2,1-b]quinazoline-4-carboxamide]
Degradation of RPA194 by Western blotting [1]: inactive
Effect on cell viability [5]: little or no activity

CC(C)N1CCN(C(=O)c2cccn3c(=O)c4cc5ccccc5cc4nc23)CC1 [Compound 31, 4-(4-Isopropylpiperazine-1-carbonyl)-12H-benzo[g]pyrido[2,1-b]quinazoline-12-one]
Biological activity (in words) [9]: inactive

CN(C)[C@H]1CCN(C(=O)c2cccn3c(=O)c4cc5ccccc5cc4nc23)C1 [Compound 33, 4-[(3S)-3-(Dimethylamino)pyrrolidine-1-carbonyl]-12H-benzo[g]pyrido[2,1-b]quinazoline-12-one]
Biological activity (in words) [9, 11]: inactive

CCN(CC)C1CCN(C(=O)c2cccn3c(=O)c4cc5ccccc5cc4nc23)C1 (centres unmarked) [Compound 34, 4-[3-(Diethylamino)pyrrolidine-1-carbonyl]-12H-benzo[g]pyrido[2,1-b]quinazoline-12-one]
Biological activity (in words) [9, 11]: inactive

O=C(NCCN1CCOCC1)c1cccn2c(=O)c3cc4ccccc4cc3nc12 [Compound 36, N-(2-Morpholinoethyl)-12-oxo-12H-benzo[g]pyrido[2,1-b]quinazoline-4-carboxamide]
Degradation of RPA194 by Western blotting [1, 10]: less potent
Effect on cell viability [5]: little or no activity
